Source: EP4810038A1, “METHOD FOR TREATING ALK-POSITIVE OR ROS1-POSITIVE NON-SMALL CELL LUNG CANCER” (Shenzhen TargetRx Co., Ltd., priority 2023, dated 2025)
Entries after “also recorded” stand apart in the source; their conditions may differ.

Columns and labels:
[1] = system: Ba/F3 (EML4-ALK G1202R) cell line; test: Anti-tumor effect in subcutaneous transplanted Ba/F3 (EML4-ALK G1202R) model; type: in vivo, NOD-SCID mice; details: for average tumor volume: 16th day after administration
Excerpt: Example 2: The anti-tumor effect in the subcutaneous transplanted animal model of Ba/F3 (EML4-ALK G1202R) cell line in female NOD-SCID mice.
Laboratory animals: NOD-SCID mice, female, 7 to 8 weeks old (the age of mice at tumor cell inoculation), weighing 16.0 to 20.3 g, and 50 mice (with additional 30 surplus mice). […] Housing environment: SPF grade.
Environmental conditions of the housing room of the laboratory animals: All the laboratory animals were housed in individually ventilated cages with constant temperature and constant humidity. The temperature of the housing room was 20 to 26 °C, the humidity was 40 to 70%, the ventilation was 10 to 20 times/hour, and the day/night light/dark cycle was 12h/12h. The animals were continuously provided with cobalt-60 irradiated complete pelleted mouse feed with unlimited free access. The animals drank tap water (used after being autoclaved), which was provided continuously from water bottles, allowing for free access. The cages for raising the mice were polysulfone mice cages, which were autoclaved before use, and measured 325 mm × 210 mm × 180 mm. The bedding was autoclaved corn cobs. Each cage contained 5 animals. […] The laboratory animals were marked with ear tags or ear labels.
Cell culture: Ba/F3 (EML4-ALK G1202R) cells (cell number: ECL-00031) were cultured in RPMI 1640 culture medium containing 10% fetal bovine serum. The Ba/F3 (EML4-ALK G1202R) cells in the exponential growth phase were collected, resuspended in PBS to a suitable concentration, and then subcutaneously inoculated for tumor formation.
Assay method: Female NOD/SCID mice were subcutaneously inoculated with 2×10^6 Ba/F3 (EML4-ALK G1202R) cells on the right side to establish a subcutaneous tumor transplantation model. […] The mice were administered orally via gavage once daily. The efficacy was evaluated based on the relative tumor growth inhibition rate (TGI), and the safety was evaluated based on the changes in the body weight and mortality of the animals.
All the procedures, including drug administration, tumor measurement, weight measurement, etc., were performed in a biosafety cabinet or on a clean bench.
The relative tumor growth rate (T/C%) was the percentage value of the relative tumor volume between a treatment group and the control group at a certain time point, or the percentage value of the tumor weight between a treatment group and the control group. […]

[2] = Phase I clinical trial: safety and tolerability (TRAE, CNS-related AE, DLT, MTD, RP2D); type: in vivo
Excerpt: An adverse event will be described using MedDRA (Medical Dictionary for Regulatory Activities). Analysis of an adverse event will be based on a treatment emergent adverse event (TEAE). TEAE is defined as an adverse event that occur or worsen after a treatment/medication.
Subjects in all the dose groups received a single dose on day 1 (D1), and the blood samples were collected for pharmacokinetic (PK) assay and tolerability observation. […] The administration frequency for the subjects in the subsequent dose groups after entering the multiple-dose period was determined based on the obtained PK and tolerability data. In this trial, the administration frequency for all the subjects could be adjusted throughout the trial based on the continuously acquired safety and PK data. The four lower dose groups (5 mg, 10 mg, 20 mg and 40 mg) used an accelerated titration design, with one subject enrolled in each dose group. […] The 60 mg dose group and the subsequent dose groups followed a "3+3" dose escalation method, and the MTD was determined. […] During the dose escalation, if a dose group was confirmed to have a preliminary antitumor effect and manageable safety (e.g., no DLT occurred in 3 subjects or only 1 out of 6 subjects experienced DLT), the dose level could be expanded after a discussion and confirmation by the researcher and the sponsor.

[3] = 60mg dose group n=168, any level

## [2H]C([2H])([2H])n1nc2c(c1C#N)-c1cnc(N)c(c1)O[C@H](C)c1cc(F)ccc1C(=O)N(C)C2 [compound A, (10R)-7-amino-12-fluoro-2-(methyl-d3)-10,16-dimethyl-15-oxo-10,15,16,17-tetrahydro-2H-8,4-(metheno)pyrazolo[4,3-h][2,5,11]benzoxadiazacyclotetradecine-3-carbonitrile]
[1]; 1.5 mg/kg p.o. once daily
  average tumor volume: 2139.18 mm^3
[1]; 5 mg/kg p.o. once daily
  average tumor volume: 576.11 mm^3
[1]; 15 mg/kg p.o. once daily
  average tumor volume: 0.25 mm^3
[1]; 15 mg/kg, end of the assay
  tumor-bearing mice with tumor volume reduced to 0: 9/10
[2]; [3]
  Any TRAE: 159 (94.6) number of cases (%)
  TRAE Anemia: 26 (15.5) number of cases (%)
  TRAE Diarrhea: 8 (8.2) number of cases (%)
  TRAE Edema: 45(22.7) number of cases (%)
  TRAE Elevated alanine aminotransferase: 14 (8.3) number of cases (%)
  TRAE Elevated creatinine: 11 (6.5) number of cases (%)
  TRAE Hypercholesterolemia: 131 (78.0) number of cases (%)
  TRAE Hypertriglyceridemia: 124 (73.8) number of cases (%)
  TRAE Hyperuricemia: 26 (15.5) number of cases (%)
  TRAE Hypoproteinemia: 10 (6.0) number of cases (%)
  TRAE Increased AST: 18 (10.7) number of cases (%)
  TRAE Increased LDL cholesterol: 45 (26.8) number of cases (%)
  TRAE Increased creatine phosphokinase: 9 (5.4) number of cases (%)
  TRAE Increased glutamine transferase: 9 (5.4) number of cases (%)
  TRAE Increased lipase: 12 (7.1) number of cases (%)
  TRAE Peripheral neuropathy: 34(20.2) number of cases (%)
  TRAE Positive for occult blood in urine: 13 (7.7) number of cases (%)
  TRAE Proteinuria: 7 (7.2) number of cases (%)
  TRAE Weight gain: 77 (45.8) number of cases (%)
[2]; 60mg dose group n=168, ≥3
  Any TRAE: 61 (36.3%) number of cases (%)
  TRAE Anemia: 4 (2.4) number of cases (%)
  TRAE Diarrhea: 0 number of cases (%)
  TRAE Edema: 2 (1.2) number of cases (%)
  TRAE Elevated alanine aminotransferase: 0 number of cases (%)
  TRAE Elevated creatinine: 0 number of cases (%)
  TRAE Hypercholesterolemia: 17 (10.1) number of cases (%)
  TRAE Hypertriglyceridemia: 31 (18.5) number of cases (%)
  TRAE Hyperuricemia: 4 (2.4) number of cases (%)
  TRAE Hypoproteinemia: 0 number of cases (%)
  TRAE Increased AST: 0 number of cases (%)
  TRAE Increased LDL cholesterol: 0 number of cases (%)
  TRAE Increased creatine phosphokinase: 0 number of cases (%)
  TRAE Increased glutamine transferase: 2 (1.2) number of cases (%)
  TRAE Increased lipase: 1 (0.6) number of cases (%)
  TRAE Peripheral neuropathy: 1 (0.6) number of cases (%)
  TRAE Positive for occult blood in urine: 0 number of cases (%)
  TRAE Proteinuria: 0 number of cases (%)
  TRAE Weight gain: 11 (6.5) number of cases (%)
[2]; 198 patients
  dose interruption or dose reduction due to treatment-related CNS AEs: no dose interruption or dose reduction was observed
  most common TRAEs: hypercholesterolemia, hypertriglyceridemia, or weight gain
  patients with grade ≥ 3 treatment-related CNS AEs: 1.0%
[2]; Any level
  Any CNS-related AE: 18 (9.1) number of cases (%)
  CNS-related AE: Anger: 1 (0.5) number of cases (%)
  CNS-related AE: Cognitive impairment: 1 (0.5) number of cases (%)
  CNS-related AE: Depression: 3 (1.5) number of cases (%)
  CNS-related AE: Disorganized speech: 1 (0.5) number of cases (%)
  CNS-related AE: Impact on cognition: 5 (2.5) number of cases (%)
  CNS-related AE: Impact on emotion: 4 (2.0) number of cases (%)
  CNS-related AE: Impact on language: 2 (1.0) number of cases (%)
  CNS-related AE: Impact on sleep: 7 (4.5) number of cases (%)
  CNS-related AE: Insomnia: 1 (0.5) number of cases (%)
  CNS-related AE: Memory impairment: 3 (1.5) number of cases (%)
  CNS-related AE: Mental disorder: 1 (0.5) number of cases (%)
  CNS-related AE: Poor sleep quality: 6 (4.0) number of cases (%)
  CNS-related AE: Speech disorder: 1 (0.5) number of cases (%)
[2]; In total n=198, any level
  Any TRAE: 184 (92.9%) number of cases (%)
  TRAE Anemia: 27 (13.6) number of cases (%)
  TRAE Diarrhea: 13 (6.6) number of cases (%)
  TRAE Edema: 51(25.8) number of cases (%)
  TRAE Elevated alanine aminotransferase: 18 (9.1) number of cases (%)
  TRAE Elevated creatinine: 12 (6.1) number of cases (%)
  TRAE Hypercholesterolemia: 154 (77.8) number of cases (%)
  TRAE Hypertriglyceridemia: 147 (74.2) number of cases (%)
  TRAE Hyperuricemia: 27 (13.6) number of cases (%)
  TRAE Hypoproteinemia: 10 (5.1) number of cases (%)
  TRAE Increased AST: 20 (10.1) number of cases (%)
  TRAE Increased LDL cholesterol: 51 (25.8) number of cases (%)
  TRAE Increased creatine phosphokinase: 11 (5.6) number of cases (%)
  TRAE Increased glutamine transferase: 10 (5.1) number of cases (%)
  TRAE Increased lipase: 19 (9.6) number of cases (%)
  TRAE Peripheral neuropathy: 38(19.2) number of cases (%)
  TRAE Positive for occult blood in urine: 13 (6.6) number of cases (%)
  TRAE Proteinuria: 10 (5.1) number of cases (%)
  TRAE Weight gain: 91 (46.0) number of cases (%)
[2]; In total n=198, ≥3
  Any TRAE: 73 (36.9%) number of cases (%)
  TRAE Anemia: 4 (2.0) number of cases (%)
  TRAE Diarrhea: 0 number of cases (%)
  TRAE Edema: 3(1.5) number of cases (%)
  TRAE Elevated alanine aminotransferase: 0 number of cases (%)
  TRAE Elevated creatinine: 0 number of cases (%)
  TRAE Hypercholesterolemia: 18 (9.1) number of cases (%)
  TRAE Hypertriglyceridemia: 38 (19.2) number of cases (%)
  TRAE Hyperuricemia: 4 (2.0) number of cases (%)
  TRAE Hypoproteinemia: 0 number of cases (%)
  TRAE Increased AST: 0 number of cases (%)
  TRAE Increased LDL cholesterol: 0 number of cases (%)
  TRAE Increased creatine phosphokinase: 0 number of cases (%)
  TRAE Increased glutamine transferase: 2 (1.0) number of cases (%)
  TRAE Increased lipase: 1 (0.5) number of cases (%)
  TRAE Peripheral neuropathy: 1(0.5) number of cases (%)
  TRAE Positive for occult blood in urine: 0 number of cases (%)
  TRAE Proteinuria: 0 number of cases (%)
  TRAE Weight gain: 14 (7.1) number of cases (%)
[2]; dose escalation and dose expansion phases
  incidence of other AE, 60 mg dose group versus 80 mg dose group: significantly lower
[2]; dose escalation phase, 5 to 125 mg
  dose-limiting toxicity (DLT): No DLT was observed; also recorded: No dose-limiting toxicity was observed
[2]; dose escalation up to 125 mg
  MTD: not reached
[2]; ≥3
  Any CNS-related AE: 2 (1.0) number of cases (%)
  CNS-related AE: Anger: 0 number of cases (%)
  CNS-related AE: Cognitive impairment: 0 number of cases (%)
  CNS-related AE: Depression: 0 number of cases (%)
  CNS-related AE: Disorganized speech: 0 number of cases (%)
  CNS-related AE: Impact on cognition: 1 (0.5) number of cases (%)
  CNS-related AE: Impact on language: 1 (0.5) number of cases (%)
  CNS-related AE: Insomnia: 0 number of cases (%)
  CNS-related AE: Memory impairment: 0 number of cases (%)
  CNS-related AE: Mental disorder: 1 (0.5) number of cases (%)
  CNS-related AE: Poor sleep quality: 0 number of cases (%)
  CNS-related AE: Speech disorder: 1 (0.5) number of cases (%)
